Results on three molecules are retold here after publication PMC10970644, “Molecular Pharmacology of Gelsemium Alkaloids on Inhibitory Receptors” (International Journal of Molecular Sciences, 2024).

Common to all, as to assay: cell-based
Holding throughout (format): cell-based

The target of one assay is T1, α2β GlyR (Rattus norvegicus, UniProt P20781+P22771).
T1 construct: The cells were transfected with plasmids encoding the following proteins; expressed in transfected cells; host or cells: HEK293 (ATCC CRL-1573)
The procedure:
(§1) The cells were transfected with plasmids encoding the following proteins: (i). rat GlyR α (1, 2, 3) subunits alone or combined with rat β subunits (Uniprot Accession Numbers: Q546L7, P22771, P20236, P20781); and (ii). rat GABAAR α1 combined with rat β2 and γ2 subunits (Uniprot Accession Numbers: P62813, P63138, P18508). The EGFP expression was used as a marker of successful protein expression. The transfection was performed using Lipofectamine 2000 (Invitrogen, ThermoFisher, Carlsbad, CA, USA) using the fabricant protocol. The plasmids used to express GlyRs and GABAARs have been previously described. To track the successful expression of GlyR β subunits and the GABAA γ2 or β2 subunit, these proteins were subcloned in the pIRES2-EGFP vector. The transfection ratio to obtain β-containing GlyRs was 1:5 of α:β, while the expression of γ2-containing GABAA receptors was 1:2:5 of α:β:γ2 [14, 15]. Chimeric GlyRs were described in a previous report. Site directed mutagenesis was performed by Charm Gene Science Mutagenex LLC. (Cumming, GA, USA). All the constructs were checked by full-length sequencing (SNPSaurus, Eugene, OR, USA).
(§2) In brief, patch electrodes (3–4 MΩ) were pulled from borosilicate glasses in a PC-100 puller (Narishige, Tokyo, Japan); then, they were filled with an intracellular solution, which contained (in mM) 120 CsCl, 8 EGTA, 10 HEPES (pH 7.4), 4 MgCl2, 0.5 GTP, and 2 ATP. The extracellular solution contained (in mM) 140 NaCl, 5.4 KCl, 2.0 CaCl2, 1.0 MgCl2, 10 HEPES (pH 7.4), and 10 glucose. Whole-cell patch-clamp recordings were performed at −60 mV with an Axoclamp 200B (Molecular Devices, Sunnyvale, CA, USA) or with HEKA EPC-10 (HEKA Elektronik GmbH, Reutlingen, Germany) amplifiers. […] Brief (3–5 s) pulses of agonist together with alkaloids were applied to cells. Stock solutions of the alkaloids were prepared in high purity distilled water. Aliquots of these stock solutions were diluted in reservoirs containing extracellular solution. […] The concentration–response curve parameters for the alkaloid inhibition (IC50, nH, and the maximal current inhibition) were obtained from the fitted curve of normalized concentration–response data points to the equation Iagonist = Imax (agonist)nH/((agonist)nH + (EC50)nH). The IC50 curves are best-fit mean ± SE from pooled data. […] The inhibition constant (Ki) was calculated using the Cheng–Prusoff equation (Ki = IC50/((2 + ([Agonist]/EC50)^nH)^1/nH − 1). The concentration of agonist corresponds to the sub-saturating agonist concentration used to obtain the IC50 for each alkaloid on a given GlyR subtype.

In a further assay the target is T2, α3 GlyR (Rattus norvegicus, UniProt P24524).
T2 construct: expressed in transfected cells; host or cells: HEK293 (ATCC CRL-1573)
T2 sequence (P24524 34-464): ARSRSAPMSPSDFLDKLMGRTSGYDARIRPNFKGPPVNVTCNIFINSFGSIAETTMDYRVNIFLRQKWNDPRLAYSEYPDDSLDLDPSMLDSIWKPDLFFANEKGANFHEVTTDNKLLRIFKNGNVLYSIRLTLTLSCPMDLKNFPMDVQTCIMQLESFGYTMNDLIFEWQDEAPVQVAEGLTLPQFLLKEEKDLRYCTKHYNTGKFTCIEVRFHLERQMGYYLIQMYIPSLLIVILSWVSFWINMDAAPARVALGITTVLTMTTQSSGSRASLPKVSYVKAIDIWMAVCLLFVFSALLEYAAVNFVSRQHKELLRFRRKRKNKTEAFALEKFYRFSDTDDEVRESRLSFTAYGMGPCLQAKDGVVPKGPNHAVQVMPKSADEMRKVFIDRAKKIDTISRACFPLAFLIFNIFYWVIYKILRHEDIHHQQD
The procedure: as §1, §2

The target of another assay is T3, α2 GlyR (Rattus norvegicus, UniProt P22771).
T3 construct: The cells were transfected with plasmids encoding the following proteins; expressed in transfected cells; host or cells: HEK293 (ATCC CRL-1573)
T3 sequence (P22771 28-452): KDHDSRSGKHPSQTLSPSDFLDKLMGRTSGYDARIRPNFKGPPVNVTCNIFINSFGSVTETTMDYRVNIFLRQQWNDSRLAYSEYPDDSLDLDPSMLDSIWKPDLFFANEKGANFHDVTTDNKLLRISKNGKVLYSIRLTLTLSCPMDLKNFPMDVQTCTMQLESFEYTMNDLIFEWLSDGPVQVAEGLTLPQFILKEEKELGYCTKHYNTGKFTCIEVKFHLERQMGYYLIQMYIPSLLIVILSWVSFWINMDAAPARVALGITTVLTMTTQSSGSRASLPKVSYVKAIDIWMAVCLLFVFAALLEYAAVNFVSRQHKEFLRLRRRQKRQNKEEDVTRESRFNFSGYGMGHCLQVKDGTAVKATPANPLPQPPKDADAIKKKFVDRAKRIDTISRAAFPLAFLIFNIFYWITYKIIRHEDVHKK
The procedure: as §1, §2

For another assay, the target named is T4, α1 GlyR (Rattus norvegicus, UniProt P07727).
T4 construct: expressed in transfected cells; host or cells: HEK293 (ATCC CRL-1573)
T4 sequence (P07727 29-457): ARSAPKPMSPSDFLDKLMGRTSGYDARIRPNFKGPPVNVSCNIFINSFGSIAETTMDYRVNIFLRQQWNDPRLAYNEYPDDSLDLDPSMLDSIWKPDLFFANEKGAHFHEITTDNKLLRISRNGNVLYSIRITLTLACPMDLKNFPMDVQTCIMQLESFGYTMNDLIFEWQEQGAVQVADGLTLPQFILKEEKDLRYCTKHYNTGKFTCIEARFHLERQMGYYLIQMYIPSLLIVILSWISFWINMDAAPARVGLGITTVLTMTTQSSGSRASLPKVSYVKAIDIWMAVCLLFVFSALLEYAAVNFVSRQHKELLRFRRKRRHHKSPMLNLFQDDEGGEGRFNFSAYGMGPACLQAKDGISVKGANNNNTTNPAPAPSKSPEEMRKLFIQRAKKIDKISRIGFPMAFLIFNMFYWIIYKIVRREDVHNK
The procedure: as §1, §2

The mark [1] stands for this setting: Hill coefficient of inhibition curve.
The mark [2] stands for this setting: calculated using the Cheng–Prussof equation.
The mark [3] stands for this setting: percentage change of glycine-evoked current.

T1 sequence (P20781 23-496, one chain of several): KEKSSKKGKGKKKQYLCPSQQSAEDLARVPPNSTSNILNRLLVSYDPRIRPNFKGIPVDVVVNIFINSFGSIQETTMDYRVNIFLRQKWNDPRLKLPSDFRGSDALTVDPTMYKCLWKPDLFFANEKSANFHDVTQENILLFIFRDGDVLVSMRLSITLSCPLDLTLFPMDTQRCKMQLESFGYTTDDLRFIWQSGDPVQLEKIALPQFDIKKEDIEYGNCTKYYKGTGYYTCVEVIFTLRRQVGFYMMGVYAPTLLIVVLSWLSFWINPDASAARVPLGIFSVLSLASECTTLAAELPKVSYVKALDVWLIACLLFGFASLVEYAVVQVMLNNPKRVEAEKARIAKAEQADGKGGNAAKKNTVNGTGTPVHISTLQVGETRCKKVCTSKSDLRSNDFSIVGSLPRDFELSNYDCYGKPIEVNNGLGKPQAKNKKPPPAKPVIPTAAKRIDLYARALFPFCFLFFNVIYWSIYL

`NCC(=O)O` [glycine, reference compound]: the EC50 at α2β GlyR (read-out: EC50 of agonist) was found to be 105 ± 9 µM; at α3 GlyR (read-out: EC50 of agonist), 150 ± 10 µM; at α2 GlyR (read-out: EC50 of agonist) it was 91 ± 6 µM.
Turning to `C=C[C@@]12CN(C)[C@H]3C[C@]14C(=Nc1ccccc14)[C@H]1C[C@@H]2[C@@H]3CO1` [koumine], the IC50 against α2β GlyR amounted to 23.6 ± 8.3 µM; against α1 GlyR it was 31.5 ± 1.7 µM; on α3 GlyR it was 15.8 ± 4.6 µM; against α2 GlyR it was 11.2 ± 2.1 µM. Further, the nH worked out at 1.3 ± 0.6 at α2β GlyR (setting [1]), 1.7 ± 0.1 at α1 GlyR (setting [1]), 0.9 ± 0.2 on α3 GlyR (setting [1]) and 1.0 ± 0.2 on α2 GlyR (setting [1]). Moreover, the Ki at α2β GlyR (setting [2]) was 57.4 ± 4 µM; at α1 GlyR (setting [2]), 53.1 ± 17.1 µM; at α3 GlyR (setting [2]) it was 33.9 ± 15.8 µM; on α2 GlyR (setting [2]), 44.2 ± 4.6 µM. Besides, the “Maximal Modulation” value at α1 GlyR (setting [3]) is given as −95.0 ± 1.5%; at α3 GlyR (setting [3]) it was −87.3 ± 4.0%.
Take `C=C[C@]12CN(C)[C@@H]3[C@H]4CO[C@H](C[C@H]41)[C@]1(C(=O)Nc4ccccc41)[C@@H]32` [gelsemine]: the “effect on glycine-evoked currents (in words)” value is listed as “potentiated” at α1 GlyR (wild-type, 10 μM gelsemine, 35 μM glycine) and “inhibited” on α2 GlyR (wild-type, 50 μM gelsemine, 60 μM glycine).

For orientation: EC50 means the concentration that produces a half-maximal response. Broadly, the IC50 is the concentration that gives 50% inhibition. Lower therefore signals higher potency. As a reminder, the Ki is a dissociation constant, usually derived from enzyme kinetics or from competition with a known ligand.
